≈ marks a conversion by molar mass, not a printed value. Where a SMILES comes first, the peptide text is derived from it. Bridges are numbered along the chain shown (N, C = ends). Roman numbers before positions name the chains, in order. [ ]: non-standard residue; d: D form. Tle = CC(C)(C)[C@H](N)C(=O)O; dDab = NCC[C@@H](N)C(=O)O; Orn = NCCC[C@H](N)C(=O)O; Dab = NCC[C@H](N)C(=O)O; Dap = NC[C@H](N)C(=O)O
Columns and labels:
Format in all cases: cell-based
[1] = tested on: human red blood cells (hRBC); assay: Hemolysis; conditions: red cells of human, 1 h, 200
Procedure, shortened: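 Washed fresh hRBC (20% v/v) were incubated with peptides at 200 μg/mL for 1 h at 37° C with shaking at 300 rpm. Supernatant OD540 was read after centrifugation and dilution, blank-corrected, and expressed as percent of the 2% Triton X-100 (100% lysis) control; PBS with 10% water gave 0%.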

[2] = tested on: Acinetobacter baumannii 872842; conditions: 872842
Procedure, shortened: (§1)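 Broth microdilution per CLSI; MH-II (cation-adjusted) + 0.002% P-80 final; ~10^6 CFU/mL inoculum; 2-fold peptide series; 35° C, 18-20 h; MIC = no visible growth, μg/mL.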

Escherichia coli 926415 = conditions: 926415
Procedure, shortened: as §1

[3] = tested on: Pseudomonas aeruginosa ATCC 27853; conditions: ATCC 27853
Procedure, shortened: as §1

[4] = tested on: Enterobacter cloacae 848840; conditions: 848840
Procedure, shortened: as §1

[5] = tested on: Escherichia coli ATCC 25922; conditions: ATCC 25922
Procedure, shortened: as §1

[6] = tested on: Acinetobacter baumannii DSM 30008; conditions: DSM 30008
Procedure, shortened: as §1

[7] = tested on: Klebsiella pneumoniae 968733; conditions: 968733
Procedure, shortened: as §1

[8] = tested on: Klebsiella pneumoniae SSI #3010; conditions: SSI #3010
Procedure, shortened: as §1

SMILES	Hemolysis at 200 μg/mL [1]	MIC [2]	MIC (Escherichia coli 926415)	Pseudomonas aeruginosa ATCC 27853 MIC [3]	MIC [4]	Escherichia coli ATCC 25922 MIC [5]	Acinetobacter baumannii DSM 30008 MIC [6]	MIC [7]	Klebsiella pneumoniae SSI #3010 MIC [8]
CC(=O)N[C@H](C(=O)N[C@H]1CCNC(=O)CC[C@@H](C(=O)N[C@@H](CO)C(N)=O)NC(=O)[C@H](C(C)C)NC(=O)[C@H](CO)NC(=O)[C@H](Cc2c[nH]c3ccccc23)NC(=O)CNC(=O)[C@@H](CCN)NC(=O)[C@H](CCC(=O)N[C@@H](CCN)C(=O)N[C@H](C(=O)N[C@@H](CN)C(=O)N[C@H]2CCNC(=O)[C@H]([C@@H](C)O)NC(=O)[C@H](CCN)NC(=O)[C@H](CCN)NC(=O)[C@H](CC(C)C)NC(=O)[C@@H](CC(C)C)NC(=O)[C@H](CCN)NC2=O)[C@@H](C)O)NC(=O)[C@H](CCN)NC(=O)[C@H](Cc2ccc(O)cc2)NC1=O)C(C)C [Ex. 349] (I: Ac-V[Dab]Y[Dab]E[dDab]GWSVES-NH2 / II: [Dab]T[Dap][Dab][Dab][dL]L[Dab][Dab]T; lactam I:2-I:11, II:4-II:C; amide I:5-II:N)	<1%	0.25 µg/mL (≈ 0.105 µM)	0.25 µg/mL (≈ 0.105 µM)	0.125 µg/mL	0.25 µg/mL (≈ 0.105 µM)	0.0625 µg/mL	0.0625 µg/mL	0.25 µg/mL (≈ 0.105 µM)	0.125 µg/mL
CC(=O)N[C@@H](CC(C)C)C(=O)N[C@H]1CSSC[C@@H](C(=O)N[C@@H](CO)C(N)=O)NC(=O)[C@H](C(C)(C)C)NC(=O)[C@H](CCN)NC(=O)[C@H](Cc2c[nH]c3ccccc23)NC(=O)[C@H](CCN)NC(=O)[C@@H](CCN)NC(=O)[C@H](CCC(=O)N[C@@H](CCN)C(=O)N[C@H](C(=O)N[C@@H](CCN)C(=O)N[C@H]2CCNC(=O)[C@H]([C@@H](C)O)NC(=O)[C@H](CCN)NC(=O)[C@H](CCN)NC(=O)[C@H](CC(C)C)NC(=O)[C@@H](CC(C)C)NC(=O)[C@H](CCN)NC2=O)[C@@H](C)O)NC(=O)[C@H](CCN)NC(=O)[C@H](Cc2ccc(O)cc2)NC1=O [Ex. 352] (I: Ac-LCY[Dab]E[dDab][Dab]W[Dab][Tle]CS-NH2 / II: [Dab]T[Dab][Dab][Dab][dL]L[Dab][Dab]T; disulfide I:2-I:11; amide I:5-II:N; lactam II:4-II:C)	<1%	4 µg/mL (≈ 1.62 µM)	0.25 µg/mL (≈ 0.101 µM)	0.25 µg/mL	8 µg/mL (≈ 3.24 µM)	0.125 µg/mL	1 µg/mL	0.5 µg/mL (≈ 0.203 µM)	0.125 µg/mL
CC(=O)N[C@@H](CC(C)C)C(=O)N[C@H]1CSSC[C@@H](C(=O)N[C@@H](CO)C(N)=O)NC(=O)[C@H](C(C)C)NC(=O)[C@H](CCN)NC(=O)[C@H](Cc2c[nH]c3ccccc23)NC(=O)[C@H](CCN)NC(=O)[C@@H](CCN)NC(=O)[C@H](CCC(=O)N[C@@H](CCN)C(=O)N[C@H](C(=O)N[C@@H](CN)C(=O)N[C@H]2CCNC(=O)[C@H]([C@@H](C)O)NC(=O)[C@H](CCN)NC(=O)[C@H](CCN)NC(=O)[C@H](CC(C)C)NC(=O)[C@@H](CC(C)C)NC(=O)[C@H](CCN)NC2=O)[C@@H](C)O)NC(=O)[C@H](CCN)NC(=O)[C@H](Cc2ccc(O)cc2)NC1=O [Ex. 353] (I: Ac-LCY[Dab]E[dDab][Dab]W[Dab]VCS-NH2 / II: [Dab]T[Dap][Dab][Dab][dL]L[Dab][Dab]T; disulfide I:2-I:11; amide I:5-II:N; lactam II:4-II:C)	<1%	4 µg/mL (≈ 1.64 µM)	0.25 µg/mL (≈ 0.103 µM)	0.25 µg/mL	8 µg/mL (≈ 3.28 µM)	0.125 µg/mL	1 µg/mL	4 µg/mL (≈ 1.64 µM)	0.125 µg/mL
CC(=O)N[C@H](C(=O)N[C@H]1CSSC[C@@H](C(=O)N[C@@H](CO)C(N)=O)NC(=O)[C@H](C(C)C)NC(=O)[C@H](CO)NC(=O)[C@H](Cc2c[nH]c3ccccc23)NC(=O)[C@H](CCC(=O)N[C@@H](CCN)C(=O)N[C@H](C(=O)N[C@@H](CN)C(=O)N[C@H]2CCNC(=O)[C@H]([C@@H](C)O)NC(=O)[C@H](CCN)NC(=O)[C@H](CCN)NC(=O)[C@H](CC(C)C)NC(=O)[C@@H](CC(C)C)NC(=O)[C@H](CCN)NC2=O)[C@@H](C)O)NC(=O)[C@@H](CCN)NC(=O)[C@H](CCCN)NC(=O)[C@H](CO)NC(=O)[C@H](Cc2ccc(O)cc2)NC1=O)C(C)C [Ex. 354] (I: Ac-VCYS[Orn][dDab]EWSVCS-NH2 / II: [Dab]T[Dap][Dab][Dab][dL]L[Dab][Dab]T; disulfide I:2-I:11; amide I:7-II:N; lactam II:4-II:C)	1%	0.0625 µg/mL (≈ 0.0259 µM)	0.5 µg/mL (≈ 0.207 µM)	0.125 µg/mL	0.125 µg/mL (≈ 0.0518 µM)	0.0625 µg/mL	0.03125 µg/mL	0.25 µg/mL (≈ 0.104 µM)	0.0625 µg/mL
CC(=O)N[C@H](C(=O)N[C@H]1CSSC[C@@H](C(=O)N[C@@H](CO)C(N)=O)NC(=O)[C@H](C(C)C)NC(=O)[C@H](CO)NC(=O)[C@H](Cc2c[nH]c3ccccc23)NC(=O)[C@H](CCC(=O)N[C@@H](CCN)C(=O)N[C@H](C(=O)N[C@@H](CN)C(=O)N[C@H]2CCNC(=O)[C@H]([C@@H](C)O)NC(=O)[C@H](CCN)NC(=O)[C@H](CCN)NC(=O)[C@H](CC(C)C)NC(=O)[C@@H](CC(C)C)NC(=O)[C@H](CCN)NC2=O)[C@@H](C)O)NC(=O)[C@@H](CCN)NC(=O)[C@H](CCCN)NC(=O)[C@H]([C@@H](C)O)NC(=O)[C@H](Cc2ccc(O)cc2)NC1=O)C(C)C [Ex. 355] (I: Ac-VCYT[Orn][dDab]EWSVCS-NH2 / II: [Dab]T[Dap][Dab][Dab][dL]L[Dab][Dab]T; disulfide I:2-I:11; amide I:7-II:N; lactam II:4-II:C)	6%	0.0625 µg/mL (≈ 0.0258 µM)	0.25 µg/mL (≈ 0.103 µM)	0.125 µg/mL	0.125 µg/mL (≈ 0.0515 µM)	0.03125 µg/mL	0.03125 µg/mL	0.25 µg/mL (≈ 0.103 µM)	0.0625 µg/mL
CC(=O)N[C@H](C(=O)N[C@H]1CSSC[C@@H](C(=O)N[C@@H](CO)C(N)=O)NC(=O)[C@H](C(C)C)NC(=O)[C@H](CO)NC(=O)[C@H](Cc2c[nH]c3ccccc23)NC(=O)[C@H](CCC(=O)N[C@@H](CCN)C(=O)N[C@H](C(=O)N[C@@H](CN)C(=O)N[C@H]2CCNC(=O)[C@H]([C@@H](C)O)NC(=O)[C@H](CCN)NC(=O)[C@H](CCN)NC(=O)[C@H](CC(C)C)NC(=O)[C@@H](CC(C)C)NC(=O)[C@H](CCN)NC2=O)[C@@H](C)O)NC(=O)[C@@H](CCN)NC(=O)[C@H](CCN)NC(=O)[C@H](CO)NC(=O)[C@H](Cc2ccc(O)cc2)NC1=O)C(C)C [Ex. 356] (I: Ac-VCYS[Dab][dDab]EWSVCS-NH2 / II: [Dab]T[Dap][Dab][Dab][dL]L[Dab][Dab]T; disulfide I:2-I:11; amide I:7-II:N; lactam II:4-II:C)	2%	0.125 µg/mL (≈ 0.0521 µM)	0.25 µg/mL (≈ 0.104 µM)	0.125 µg/mL	0.125 µg/mL (≈ 0.0521 µM)	0.0625 µg/mL	0.0625 µg/mL	0.25 µg/mL (≈ 0.104 µM)	0.0625 µg/mL
CC(=O)N[C@H](C(=O)N[C@H]1CSSC[C@@H](C(=O)N[C@@H](CO)C(N)=O)NC(=O)[C@H](C(C)C)NC(=O)[C@H](CO)NC(=O)[C@H](Cc2c[nH]c3ccccc23)NC(=O)[C@H](CCC(=O)N[C@@H](CCN)C(=O)N[C@H](C(=O)N[C@@H](CN)C(=O)N[C@H]2CCNC(=O)[C@H]([C@@H](C)O)NC(=O)[C@H](CCN)NC(=O)[C@H](CCN)NC(=O)[C@H](CC(C)C)NC(=O)[C@@H](CC(C)C)NC(=O)[C@H](CCN)NC2=O)[C@@H](C)O)NC(=O)[C@@H](CCN)NC(=O)CNC(=O)[C@H](CO)NC(=O)[C@H](Cc2ccc(O)cc2)NC1=O)C(C)C [Ex. 357] (I: Ac-VCYSG[dDab]EWSVCS-NH2 / II: [Dab]T[Dap][Dab][Dab][dL]L[Dab][Dab]T; disulfide I:2-I:11; amide I:7-II:N; lactam II:4-II:C)	<1%	0.25 µg/mL (≈ 0.106 µM)	0.5 µg/mL (≈ 0.212 µM)	0.25 µg/mL	0.125 µg/mL (≈ 0.0531 µM)	0.0625 µg/mL	0.0625 µg/mL	0.5 µg/mL (≈ 0.212 µM)	0.125 µg/mL
